In patent US11702419B2, “Heterocyclic compound and use thereof” (Takeda Pharmaceutical Company Limited, priority 2018, dated 2023):

Biological target: T1, NMDA receptor composed of four subunits consisting of two sets of heterodimers of NR1 and NR2B (human GRIN1 and GRIN2B-expressing HEK293 cells) (Homo sapiens, UniProt Q13224)
T1 construct: host or cells: HEK293 (tetracycline-inducible expression)
Experiment: NR2B Ca2+ influx assay
Type: cell-based
Details: 10 μM compound, glutamic acid/glycine-induced Ca2+ influx, FLIPR, read-out: inhibitory rate (10 μM compound concentration)
Experimental: In order to confirm an “antagonistic action on an NMDA receptor containing the NR2B subunit” which the compound of the present invention has, inhibitory effect on the NMDA receptor activation was evaluated using “NMDA receptor composed of four subunits consisting of two sets of heterodimers of NR1 and NR2B”-expressing human fetal renal cells, specifically human glutamate ionotropic receptor NMDA type subunit 1 (GRIN1) and human glutamate ionotropic receptor NMDA type subunit 2B (GRIN2B)-expressing HEK293 cells.
As an index of the NMDA receptor activation, intracellular calcium ion (Ca^2+) influx caused by bonding of glycine and glutamate to NR1 and NR2B respectively was used. HEK293 cells were purchased from ChanTest. The cells were cultured in a DMEM/F-12 (COSMO BIO, 10-092-CM) medium containing 10% FBS (fetal bovine serum, AusGene), 100 units/mL penicillin, 100 μg/mL streptomycin, 500 μg/mL neomycin, 100 μg/mL Zeocin and 5 μg/mL Blasticidin at 37° C., 5% CO2. The cells were detached from flask with trypsin the day before the assay, suspended in a seeding medium (DMEM (Invitrogen, 31053) containing 10% FBS, 100 units/mL penicillin and 100 μg/mL streptomycin) at 8×10^5 cells/mL, seeded by 25 μL per well in a 384-well plate (Falcon, 356663) at 20000 cells/well, and cultured overnight in an incubator. On the day of the assay, tetracycline (Wako Pure Chemical Industries, 209-16561) was diluted with the seeding medium at 2 μg/mL, and the dilution was added at 25 μL/well to the plate seeded with the cells, and the cells were cultured for 2 hr in an incubator. Thereafter, the medium was removed, and the cells were washed with 50 μL/well of assay buffer (137 mM NaCl, 4 mM KCl, 1.8 mM CaCl2, 10 mM HEPES (pH 7.2), 10 mM Glucose, and 0.1% BSA). Then, a loading buffer (assay buffer containing 2.5 μM Fluo-4AM, 2 mM Amaranth and 1 mM Tartrazine) was added thereto at 25 μL/well, and loading was performed in the incubator for 30 min, and then at room temperature for 15 min. The test compound was diluted with the above-mentioned assay buffer so as to adjust the concentration to 30 μM, the obtained solution (25 μL) was added thereto (the final concentration 10 μM), and the cells were stood for 15 min at room temperature. Using FLIPR (Molecular Devices), 25 μL of an assay buffer containing 30 μM glutamic acid and 30 μM glycine was added thereto, and the fluorescence signal was measured every 3 seconds for 5 min. The relative activity value (inhibitory rate) was calculated when the cumulative total value of the fluorescence value of a well added with a buffer free of glutamic acid and glycine, relative to the cumulative total value of the fluorescence value of each well are regarded as 100% inhibition. The obtained value was evaluated as an inhibitory activity.

T1 sequence (Q13224 27-1484, other chains not shown): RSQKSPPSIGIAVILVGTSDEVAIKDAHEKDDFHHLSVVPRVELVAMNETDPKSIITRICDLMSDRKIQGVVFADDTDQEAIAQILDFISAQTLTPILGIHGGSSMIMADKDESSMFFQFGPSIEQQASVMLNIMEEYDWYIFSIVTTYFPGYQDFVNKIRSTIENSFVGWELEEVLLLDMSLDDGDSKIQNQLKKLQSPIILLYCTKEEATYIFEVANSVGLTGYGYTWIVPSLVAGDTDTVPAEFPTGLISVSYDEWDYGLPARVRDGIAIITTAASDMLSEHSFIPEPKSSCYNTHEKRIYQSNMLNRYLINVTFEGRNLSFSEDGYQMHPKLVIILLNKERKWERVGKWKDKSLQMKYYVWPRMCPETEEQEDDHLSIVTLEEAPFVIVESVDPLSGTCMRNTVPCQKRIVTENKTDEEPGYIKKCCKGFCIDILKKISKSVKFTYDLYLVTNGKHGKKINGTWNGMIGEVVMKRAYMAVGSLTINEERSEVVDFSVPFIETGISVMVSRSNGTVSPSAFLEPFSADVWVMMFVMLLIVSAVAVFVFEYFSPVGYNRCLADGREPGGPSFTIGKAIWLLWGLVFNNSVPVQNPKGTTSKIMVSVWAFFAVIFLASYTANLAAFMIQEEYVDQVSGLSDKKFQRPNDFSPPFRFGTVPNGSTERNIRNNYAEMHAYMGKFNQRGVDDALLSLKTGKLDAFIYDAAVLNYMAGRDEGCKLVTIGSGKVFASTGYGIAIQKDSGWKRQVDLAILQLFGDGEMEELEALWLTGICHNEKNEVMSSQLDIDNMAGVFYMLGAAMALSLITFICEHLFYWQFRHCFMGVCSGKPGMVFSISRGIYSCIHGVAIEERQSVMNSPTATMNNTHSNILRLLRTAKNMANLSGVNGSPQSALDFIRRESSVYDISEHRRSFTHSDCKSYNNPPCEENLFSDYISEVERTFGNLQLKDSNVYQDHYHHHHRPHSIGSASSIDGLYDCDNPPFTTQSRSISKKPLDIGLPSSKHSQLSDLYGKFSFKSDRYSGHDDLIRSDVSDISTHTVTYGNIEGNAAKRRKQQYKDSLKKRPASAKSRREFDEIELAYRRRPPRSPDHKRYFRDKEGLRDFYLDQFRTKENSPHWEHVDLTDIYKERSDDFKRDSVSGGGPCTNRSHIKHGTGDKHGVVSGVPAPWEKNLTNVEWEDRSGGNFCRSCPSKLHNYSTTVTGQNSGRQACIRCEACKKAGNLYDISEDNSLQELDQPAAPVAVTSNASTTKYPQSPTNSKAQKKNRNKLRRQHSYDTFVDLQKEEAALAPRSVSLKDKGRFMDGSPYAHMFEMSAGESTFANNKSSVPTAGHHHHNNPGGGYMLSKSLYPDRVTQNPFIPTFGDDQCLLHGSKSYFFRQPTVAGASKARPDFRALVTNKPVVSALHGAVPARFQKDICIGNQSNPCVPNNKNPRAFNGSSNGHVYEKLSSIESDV

Row | SMILES | inhibition at 10 µM
1 | CCc1nn2ncccc2c1CNC(=O)c1ccc(OC(F)F)c(F)c1 [Example 27, 4-(difluoromethoxy)-N-((2-ethylpyrazolo[1,5-b]pyridazin-3-yl)methyl)-3-fluorobenzamide] | 92%
2 | O=C(NCc1nnn2ccccc12)c1cnc(OC(F)F)c(F)c1 [Example 14, 6-(difluoromethoxy)-5-fluoro-N-([1,2,3]triazolo[1,5-a]pyridin-3-ylmethyl)nicotinamide] | 94%
3 | Cc1ccnn2ncc(CNC(=O)c3ccc(OC(F)(F)F)c(F)c3)c12 [Example 20, 3-fluoro-N-((4-methylpyrazolo[1,5-b]pyridazin-3-yl)methyl)-4-(trifluoromethoxy)benzamide] | 97%
4 | Cc1cn2ncc(CNC(=O)c3cnc(OC(F)F)c(F)c3)c2n1C [Example 85, 6-(difluoromethoxy)-N-[(1,2-dimethyl-1H-imidazo[1,2-b]pyrazol-7-yl)methyl]-5-fluoropyridine-3-carboxamide] | 97%
5 | COc1c(F)cc(C(=O)NCc2cnn3ccn(C)c23)cc1F [Example 62, 3,5-difluoro-4-methoxy-N-((1-methyl-1H-imidazo[1,2-b]pyrazol-7-yl)methyl)benzamide] | 95%
6 | O=C(NCc1nnn2ncccc12)c1cnc(OC(F)F)c(F)c1 [Example 23, 6-(difluoromethoxy)-5-fluoro-N-([1,2,3]triazolo[1,5-b]pyridazin-3-ylmethyl)nicotinamide] | 95%
7 | Cc1nn2cnccc2c1CNC(=O)c1cnc(OC(F)F)c(Cl)c1 [Example 56, 5-chloro-6-(difluoromethoxy)-N-((2-methylpyrazolo[1,5-c]pyrimidin-3-yl)methyl)nicotinamide] | 85%
8 | Cn1ccn2ncc(CNC(=O)c3ccc(OC(F)(F)F)c(F)c3)c12 [Example 57, 3-fluoro-N-((1-methyl-1H-imidazo[1,2-b]pyrazol-7-yl)methyl)-4-(trifluoromethoxy)benzamide] | 97%
9 | O=C(NCc1cnn2ncccc12)c1ccc(OC(F)F)c(Cl)c1 [Example 7, 3-chloro-4-(difluoromethoxy)-N-(pyrazolo[1,5-b]pyridazin-3-ylmethyl)benzamide] | 98%
10 | Cc1cnn2nnc(CNC(=O)c3cnc(OC(F)F)c(Cl)c3)c2c1 [Example 51, 5-chloro-6-(difluoromethoxy)-N-((5-methyl[1,2,3]triazolo[1,5-b]pyridazin-3-yl)methyl)nicotinamide] | 97%
11 | O=C(NCc1nnn2ncccc12)c1ccc(OC(F)(F)F)cc1 [Example 19, N-([1,2,3]triazolo[1,5-b]pyridazin-3-ylmethyl)-4-(trifluoromethoxy)benzamide] | 96%
12 | Cc1cnn2nnc(CNC(=O)c3cnc(OC(F)F)c(F)c3)c2c1 [Example 50, 6-(difluoromethoxy)-5-fluoro-N-((5-methyl[1,2,3]triazolo[1,5-b]pyridazin-3-yl)methyl)nicotinamide] | 97%
13 | Cc1nn2ncc(CNC(=O)c3cnc(OC(F)F)c(Cl)c3)c2n1C(F)F [Example 75, 5-chloro-6-(difluoromethoxy)-N-{[1-(difluoromethyl)-2-methyl-1H-pyrazolo[1,5-b][1,2,4]triazol-7-yl]methyl}pyridine-3-carboxamide] | 91%
14 | COc1ncc(C(=O)NCc2cnn3ncccc23)cc1F [Example 4, 5-fluoro-6-methoxy-N-(pyrazolo[1,5-b]pyridazin-3-ylmethyl)nicotinamide] | 85%
15 | Cc1ccnn2nnc(CNC(=O)c3cnc(OC(F)F)c(Cl)c3)c12 [Example 54, 5-chloro-6-(difluoromethoxy)-N-((4-methyl[1,2,3]triazolo[1,5-b]pyridazin-3-yl)methyl)nicotinamide] | 79%
16 | O=C(NCc1cnn2ncccc12)c1ccc(OC(F)F)c(F)c1 [Example 15, 4-(difluoromethoxy)-3-fluoro-N-(pyrazolo[1,5-b]pyridazin-3-ylmethyl)benzamide] | 98%

Row | SMILES | inhibition at 10 µM
17 | Cc1nn2ncccc2c1CNC(=O)c1ccc(OC(F)(F)F)c(F)c1 [Example 10, 3-fluoro-N-((2-methylpyrazolo[1,5-b]pyridazin-3-yl)methyl)-4-(trifluoromethoxy)benzamide] | 97%
18 | CCOc1nn2ncccc2c1CNC(=O)c1cnc(OC(F)F)c(F)c1 [Example 24, 6-(difluoromethoxy)-N-((2-ethoxypyrazolo[1,5-b]pyridazin-3-yl)methyl)-5-fluoronicotinamide] | 70%
19 | Cc1nn2ncc(CNC(=O)c3cnc(OC(F)F)c(Cl)c3)c2n1CC(F)F [Example 77, 5-chloro-N-{[1-(2,2-difluoroethyl)-2-methyl-1H-pyrazolo[1,5-b][1,2,4]triazol-7-yl]methyl}-6-(difluoromethoxy)pyridine-3-carboxamide] | 54%
20 | O=C(NCc1nnn2ccccc12)c1ccc(OC(F)(F)F)cc1 [Example 69, N-([1,2,3]triazolo[1,5-a]pyridin-3-ylmethyl)-4-(trifluoromethoxy)benzamide] | 92%
21 | Cc1cnn2nnc(CNC(=O)c3ccc(OC(F)(F)F)c(F)c3)c2c1 [Example 49, 3-fluoro-N-((5-methyl[1,2,3]triazolo[1,5-b]pyridazin-3-yl)methyl)-4-(trifluoromethoxy)benzamide] | 98%
22 | O=C(NCc1cnn2ccncc12)c1ccc(OC(F)(F)F)c(F)c1 [Example 16, 3-fluoro-N-(pyrazolo[1,5-a]pyrazin-3-ylmethyl)-4-(trifluoromethoxy)benzamide] | 97%
23 | Cc1nn2cnccc2c1CNC(=O)c1ccc(OC(F)(F)F)c(F)c1 [Example 48, 3-fluoro-N-((2-methylpyrazolo[1,5-c]pyrimidin-3-yl)methyl)-4-(trifluoromethoxy)benzamide] | 90%
24 | O=C(NCc1cnn2ccn(CC(F)F)c12)c1cnc(OC(F)F)c(Cl)c1 [Example 80, 5-chloro-N-[{1-(2,2-difluoroethyl)-1H-imidazo[1,2-b]pyrazol-7-yl]methyl}-6-(difluoromethoxy)pyridine-3-carboxamide] | 91%
25 | Cc1ccnn2ncc(CNC(=O)c3ccc(OC(F)F)c(F)c3)c12 [Example 36, 4-(difluoromethoxy)-3-fluoro-N-((4-methylpyrazolo[1,5-b]pyridazin-3-yl)methyl)benzamide] | 97%
26 | CCOc1nn2ncccc2c1CNC(=O)c1ccc(OC(F)F)c(F)c1 [Example 25, 4-(difluoromethoxy)-N-((2-ethoxypyrazolo[1,5-b]pyridazin-3-yl)methyl)-3-fluorobenzamide] | 78%
27 | O=C(NCc1cnn2ccn(CC(F)F)c12)c1ccc(OC(F)(F)F)c(F)c1 [Example 81, N-{[1-(2,2-difluoroethyl)-1H-imidazo[1,2-b]pyrazol-7-yl]methyl}-3-fluoro-4-(trifluoromethoxy)benzamide] | 96%
28 | O=C(NCc1cnn2ncccc12)c1ccc(OC(F)(F)F)c(F)c1 [Example 5, 3-fluoro-N-(pyrazolo[1,5-b]pyridazin-3-ylmethyl)-4-(trifluoromethoxy)benzamide] | 99%
29 | Cn1ccn2ncc(CNC(=O)c3ccc(OC(F)(F)F)cc3)c12 [Example 66, N-((1-methyl-1H-imidazo[1,2-b]pyrazol-7-yl)methyl)-4-(trifluoromethoxy)benzamide] | 98%
30 | O=C(NCc1nnn2ccccc12)c1ccc(OC(F)F)c(Cl)c1 [Example 34, 3-chloro-4-(difluoromethoxy)-N-([1,2,3]triazolo[1,5-a]pyridin-3-ylmethyl)benzamide] | 96%
31 | O=C(NCc1cnn2ccn(CC(F)F)c12)c1cnc(OC(F)F)c(F)c1 [Example 79, N-{[1-(2,2-difluoroethyl)-1H-imidazo[1,2-b]pyrazol-7-yl]methyl}-6-(difluoromethoxy)-5-fluoropyridine-3-carboxamide] | 87%
32 | Cc1ccnn2nnc(CNC(=O)c3ccc(OC(F)(F)F)c(F)c3)c12 [Example 52, 3-fluoro-N-((4-methyl[1,2,3]triazolo[1,5-b]pyridazin-3-yl)methyl)-4-(trifluoromethoxy)benzamide] | 95%
